Calls of active or inactive are those of the source. The rule behind the calls is not given here.
Experiments:
[1] = Selectivity index, ratio of IC50 for cytotoxicity against human HepG2 cells to IC50 for antiplasmodial activity against chloroquine-sensitive asexual blood stage Plasmodium falciparum 3D7; type: toxicity, cell-based; conditions: read-out: Ratio IC50
[2] = Cytotoxicity against human HepG2 cells assessed as inhibition of cell growth incubated for 24 hrs by neutral red dye based analysis; type: toxicity
Plasmodium falciparum [3] = assay: Antiplasmodial activity against chloroquine-sensitive asexual blood stage Plasmodium falciparum 3D7 assessed as inhibition of parasite growth incubated for […] by HRP2-ELISA; type: functional, organism-based
Plasmodium falciparum [4] = assay: Antiplasmodial activity against multidrug resistant asexual blood stage Plasmodium falciparum Dd2 assessed as inhibition of parasite growth incubated for […] by HRP2-ELISA; type: functional, organism-based
Plasmodium falciparum [5] = assay: Antiplasmodial activity against hyper mutating Plasmodium falciparum Dd2 harboring proofreading-deficient DNA polymerase delta assessed as inhibition of parasite growth incubated for 72 hrs by SYBR green-based assay; type: functional, organism-based; conditions: Dd2, 72 h
Plasmodium berghei [6] = assay: Antimalarial activity against Plasmodium berghei infected in mouse assessed as reduction in parasitemia in blood at 30 mg/kg, po administered for 4 times starting from 4 to 72 hrs and measured after 96 hrs post infection (reference value: 0%); type: functional; design: scale not given: the % may be the effect or the level left
Plasmodium falciparum [7] = assay: Antiplasmodial activity against multidrug resistant asexual blood stage Plasmodium falciparum Dd2-B2 assessed as inhibition of parasite growth incubated for 72 hrs by SYBR green-based assay; type: functional, organism-based; conditions: Dd2-B2, 72 h
Plasmodium berghei [8] = assay: Antimalarial activity against Plasmodium berghei infected in mouse assessed as reduction in parasitemia in blood at 10 mg/kg, po administered for 4 times starting from 4 to 72 hrs and measured after 96 hrs post infection (reference value: 0%); type: functional; design: scale not given: the % may be the effect or the level left
Plasmodium berghei [9] = assay: Antimalarial activity against Plasmodium berghei infected in mouse assessed as mean survival days at 50 mg/kg, po administered for 4 times starting from 4 to 72 hrs and monitered for 30 days (reference value: 4 days); type: functional; conditions: time 30 day
Plasmodium berghei [10] = assay: Antimalarial activity against Plasmodium berghei infected in mouse assessed as mean survival days at 30 mg/kg, po administered for 4 times starting from 4 to 72 hrs and monitered for 30 days (reference value: 4 days); type: functional; conditions: time 30 day
Plasmodium berghei [11] = assay: Antimalarial activity against Plasmodium berghei infected in mouse assessed as reduction in parasitemia in blood at 50 mg/kg, po administered for 4 times starting from 4 to 72 hrs and measured after 96 hrs post infection (reference value: 0%); type: functional; design: scale not given: the % may be the effect or the level left
Plasmodium falciparum [12] = assay: Inhibition of hemozoin formation in sorbitol-synchronized early ring stage plasmodium falciparum NF54 trophozoites assessed as reduction in hemozoin level at 1 to 2.5 times IC50 incubated for 28 hrs by flow cytometry analysis; type: functional
[13] = Cytotoxicity against HEK293 cells assessed as inhibition of cell growth incubated for 24 hrs by neutral red dye based analysis; type: toxicity; conditions: human
Plasmodium falciparum [14] = assay: Inhibition of hemozoin formation in sorbitol-synchronized early ring stage plasmodium falciparum NF54 trophozoites assessed as increase in free heme level at 1 to 2.5 times IC50 incubated for 28 hrs by flow cytometry analysis; type: functional
[15] = Cytotoxicity against human HeLa cells assessed as inhibition of cell growth incubated for 24 hrs by neutral red dye based analysis; type: toxicity
[16] = Selectivity index, ratio of IC50 for cytotoxicity against HEK293 cells to IC50 for antiplasmodial activity against chloroquine-sensitive asexual blood stage Plasmodium falciparum 3D7; type: toxicity, cell-based; conditions: human, read-out: Ratio IC50
[17] = Selectivity index, ratio of IC50 for cytotoxicity against human HeLa cells to IC50 for antiplasmodial activity against chloroquine-sensitive asexual blood stage Plasmodium falciparum 3D7; type: toxicity, cell-based; conditions: read-out: Ratio IC50

Row | SMILES | selectivity ratio [1] | IC50 at 24 h [2] | IC50 (Plasmodium falciparum [3]) | IC50 (Plasmodium falciparum [4]) | also measured
1 | N=C(CC(O)c1cc2c(Cl)cc(Cl)cc2c2cc(C(F)(F)F)ccc12)NCCc1ccc(F)cc1 (centres undefined) | 21 | 7.3 µM | 0.35 µM | 0.23 µM | –
2 | CC(C)(C)c1cc(C(O)C/C(N)=N/c2ccc(F)cc2)cc(C(C)(C)C)c1 (centres undefined) | – | – | 0.33 µM | 0.35 µM | –
3 | COc1ccc(CC/N=C(\N)CC(O)c2cc3ccccc3c3ccccc23)cc1 (centres undefined) | 129 | 9 µM | 0.07 µM | 0.7 µM | –
4 | N/C(CC(O)c1cc2c(Cl)cc(Cl)cc2c2cc(C(F)(F)F)ccc12)=N\OCc1ccc(F)cc1 (centres undefined) | 122 | 34.1 µM | – | – | –
5 | N/C(CC(O)c1cc2c(F)cc(F)cc2c2cc(C(F)(F)F)ccc12)=N\N=C\c1ccc(F)cc1 (centres undefined) | – | – | – | – | IC50 (Plasmodium falciparum [5]): 0.0268 µM; Activity (Plasmodium berghei [6]): 99.4%; IC50 (Plasmodium falciparum [7]): 0.0244 µM; Activity (Plasmodium berghei [8]): 99.5%; MSD (Plasmodium berghei [9]): 22 days; MSD (Plasmodium berghei [10]): 25 days; Activity (Plasmodium berghei [11]): 99.9%
6 | COc1ccc(/N=C(\N)CC(O)c2ccc(C(C)(C)C)cc2)cc1 (centres undefined) | 17 | 56.2 µM | 3.4 µM | 2.4 µM | –
7 | CC(C)(C)c1ccc(C(O)C/C(N)=N/c2ccc(F)cc2)cc1 (centres undefined) | 38 | 57.5 µM | 1.5 µM | 0.94 µM | –
8 | N=C(CC(O)c1cc2ccccc2c2ccccc12)NCc1ccc(F)cc1 (centres undefined) | 9 | 9.2 µM | 0.98 µM | 20 µM | –
9 | CCCCN(CCCC)CC(O)c1cc(Cl)cc2c1-c1ccc(Cl)cc1/C2=C/c1ccc(Cl)cc1 (centres undefined) [LUMEFANTRINE] | 20 | > 20 µM | 0.006 µM | 0.002 µM | Activity (Plasmodium berghei [6]): 99.8%; MSD (Plasmodium berghei [10]): >30 days
10 | N=C(CC(O)c1cc2ccccc2c2ccccc12)NCCc1ccccc1 (centres undefined) | 8 | 5.7 µM | 0.72 µM | 10 µM | –
11 | N/C(CC(O)c1cc2ccccc2c2ccccc12)=N\c1ccc(F)cc1 (centres undefined) | 344 | 9.3 µM | 0.027 µM | 0.04 µM | –
12 | CC(C)(C)c1ccc(/N=C(\N)CC(O)c2ccc(C(C)(C)C)cc2)cc1 (centres undefined) | 236 | 11.8 µM | 0.05 µM | 0.05 µM | –
13 | CCN(CC)CCCC(C)Nc1ccnc2cc(Cl)ccc12 (centres undefined) [CHLOROQUINE] | – | – | – | – | inhibition (Plasmodium falciparum [12]): Active; Activity (Plasmodium berghei [6]): 99.9%; IC50 at 24 h [13]: > 1000 µM; inhibition (Plasmodium falciparum [14]): Active; MSD (Plasmodium berghei [10]): 21 days; IC50 at 24 h [15]: > 1000 µM
14 | N=C(CC(O)c1cc2ccccc2c2ccccc12)NCCc1ccc(F)cc1 (centres undefined) | 16 | 5 µM | 0.33 µM | 1.1 µM | –
15 | N=C(CC(O)c1cc2ccccc2c2ccccc12)NCc1ccccc1 (centres undefined) | 27 | 13 µM | 0.48 µM | 1.5 µM | –
16 | N/C(CC(O)c1cc2c(F)cc(F)cc2c2cc(C(F)(F)F)ccc12)=N\CCc1ccc(F)cc1 (centres undefined) | – | – | 0.24 µM | 0.12 µM | –
17 | N/C(CC(O)c1ccnc2ccccc12)=N\c1ccc(F)cc1 (centres undefined) | > 200 | > 200 µM | 3.4 µM | 5.6 µM | –
18 | N/C(CC(O)c1cc2ccccc2c2ccccc12)=N\CCc1ccccn1 (centres undefined) | 3 | 50.5 µM | 15 µM | 22.8 µM | –
19 | CCN(CC)Cc1cc(/N=C(\N)CC(O)c2cc3ccccc3c3ccccc23)ccc1O (centres undefined) | 304 | 15.2 µM | 0.05 µM | 0.64 µM | –
20 | Cl.N/C(CC(O)c1c2ccccc2cc2ccccc12)=N\c1ccc(F)cc1 (centres undefined) | 1500 | 7.5 µM | 0.005 µM | 0.009 µM | IC50 at 24 h [13]: 78.3 µM; selectivity ratio [16]: 15700; selectivity ratio [17]: 25400; IC50 at 24 h [15]: 127 µM; Activity (Plasmodium berghei [11]): 40%
21 | COc1ccc2nccc(C(O)C/C(N)=N/c3ccc(F)cc3)c2c1 (centres undefined) | 86 | 180 µM | 2.1 µM | 5.1 µM | –
22 | N/C(CC(O)c1cc2c(Cl)cc(Cl)cc2c2cc(C(F)(F)F)ccc12)=N\N1CCCCC1 (centres undefined) | 1190 | 8.3 µM | – | – | –
23 | C[C@H]1[C@H](OC(=O)CCC(=O)O)O[C@@H]2O[C@@]3(C)CC[C@H]4[C@H](C)CC[C@@H]1[C@@]24OO3 [ARTESUNATE] | – | – | – | – | Activity (Plasmodium berghei [6]): 99%; MSD (Plasmodium berghei [10]): 9 days
